Consider 11 compounds from patent US4713384A, “Selective method for blocking 5HT2 receptors” (Eli Lilly and Company, priority 1985, dated 1987).

In one test the target is T1, α1 receptors (Rattus norvegicus, UniProt P23944).
T1 construct: their external jugular veins and thoracic aortas dissected free of connective tissue; from tissue; host or cells: thoracic aorta of male Wistar rats
T1 sequence (P23944 1-561): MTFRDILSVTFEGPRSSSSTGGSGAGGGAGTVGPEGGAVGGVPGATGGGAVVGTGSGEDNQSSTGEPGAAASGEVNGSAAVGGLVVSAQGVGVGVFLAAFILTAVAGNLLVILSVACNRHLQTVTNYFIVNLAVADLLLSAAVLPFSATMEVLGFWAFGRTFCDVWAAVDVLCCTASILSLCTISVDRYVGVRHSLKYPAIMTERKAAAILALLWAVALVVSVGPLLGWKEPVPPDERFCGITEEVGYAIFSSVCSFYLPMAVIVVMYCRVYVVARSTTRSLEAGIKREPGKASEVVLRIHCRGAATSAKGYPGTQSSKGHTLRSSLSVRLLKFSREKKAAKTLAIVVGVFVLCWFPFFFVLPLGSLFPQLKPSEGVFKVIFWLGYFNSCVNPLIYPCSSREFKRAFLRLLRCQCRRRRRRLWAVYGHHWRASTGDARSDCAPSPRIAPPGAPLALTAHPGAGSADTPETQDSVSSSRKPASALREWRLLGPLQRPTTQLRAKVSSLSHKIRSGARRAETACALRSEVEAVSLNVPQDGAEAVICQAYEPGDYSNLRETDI
Nature of the test: alpha1 antagonism in rat aorta (norepinephrine). In kind it is biochemical. As for the experimental part: (§1) An initial optimum resting force of 1 and 4 g was applied to the jugular vein and aorta, respectively. […] Exp. Ther., 205, 400 (1978) and Cohen, Colbert and Wittenauer, Drug Dev. Res., 5 513 (1985) for descriptions of the procedures employed. Alpha receptor antagonist activity was evaluated in the aorta (α1) or guinea pig ileum (α2).
(§2) The -log KB values obtained for 4-hydroxycyclohexyl 1-isopropyl-9,10-dihydrolysergate, isomer mixture (racemate) and pure isomers (cis and trans referring to stereochemistry of the hydroxycyclohexyl group) plus standard error against 5HT2 receptors are given below in Table 1.
(§3) The in vitro rat aorta preparation described above was used for α1 -receptors and the guinea pig ileum for α2 -receptors. ED50 (median effective dose) for norepinephrine was determined in the presence of a 10-5 molar dose of the test compound and this ED50 compared to a control ED50.

The target in another test is T2, α2 receptors (Cavia porcellus, UniProt Q60474).
T2 construct: Alpha receptor antagonist activity was evaluated in the aorta (α1) or guinea pig ileum (α2); from tissue; host or cells: guinea pig ileum
T2 sequence (Q60474 1-464): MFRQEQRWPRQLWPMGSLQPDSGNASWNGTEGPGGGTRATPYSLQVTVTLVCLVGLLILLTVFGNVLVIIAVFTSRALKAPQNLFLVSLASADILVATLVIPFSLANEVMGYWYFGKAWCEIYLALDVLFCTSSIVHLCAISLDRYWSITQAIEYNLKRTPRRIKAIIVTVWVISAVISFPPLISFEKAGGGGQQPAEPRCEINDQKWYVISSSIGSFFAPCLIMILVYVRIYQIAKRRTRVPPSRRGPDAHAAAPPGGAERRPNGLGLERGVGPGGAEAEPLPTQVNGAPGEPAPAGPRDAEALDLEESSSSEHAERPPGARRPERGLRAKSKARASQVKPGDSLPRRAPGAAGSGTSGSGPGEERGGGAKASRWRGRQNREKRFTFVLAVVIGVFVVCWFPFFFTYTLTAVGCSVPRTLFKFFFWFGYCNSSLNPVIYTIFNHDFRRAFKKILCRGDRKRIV
Description: alpha2 antagonism in guinea pig ileum. It counts as biochemical. As to the method: as §1, §2, §3

The target of a further test is T3, Histamine (Cavia porcellus, UniProt P31389).
T3 construct: histamine or carbamyl choline (muscarinic) contraction in guinea pig trachea; from tissue; host or cells: guinea pig trachea
T3 sequence (P31389 whole entry): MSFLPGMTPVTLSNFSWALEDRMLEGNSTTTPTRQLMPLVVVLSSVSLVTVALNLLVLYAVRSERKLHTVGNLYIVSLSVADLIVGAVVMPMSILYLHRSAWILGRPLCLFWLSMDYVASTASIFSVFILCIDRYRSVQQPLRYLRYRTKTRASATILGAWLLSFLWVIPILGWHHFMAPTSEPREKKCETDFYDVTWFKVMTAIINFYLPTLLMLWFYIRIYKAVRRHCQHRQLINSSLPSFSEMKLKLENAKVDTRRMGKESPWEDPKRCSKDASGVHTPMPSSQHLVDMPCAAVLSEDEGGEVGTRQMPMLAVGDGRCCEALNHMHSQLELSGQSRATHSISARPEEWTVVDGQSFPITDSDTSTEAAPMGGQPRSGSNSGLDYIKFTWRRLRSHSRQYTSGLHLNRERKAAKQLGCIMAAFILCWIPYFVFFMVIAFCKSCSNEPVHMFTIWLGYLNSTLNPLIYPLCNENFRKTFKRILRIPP
Nature of the test: histamine contraction in guinea pig trachea. It counts as biochemical. The text has this: (§4) The compounds of this invention also lack demonstrable effects against histamine or carbamyl choline (muscarinic) contraction in guinea pig trachea, using standard procedures.

Another test deals with T4, Muscarinic (Cavia porcellus, UniProt H0W1Z3).
T4 construct: histamine or carbamyl choline (muscarinic) contraction in guinea pig trachea; from tissue; host or cells: guinea pig trachea
T4 sequence (H0W1Z3 1-590): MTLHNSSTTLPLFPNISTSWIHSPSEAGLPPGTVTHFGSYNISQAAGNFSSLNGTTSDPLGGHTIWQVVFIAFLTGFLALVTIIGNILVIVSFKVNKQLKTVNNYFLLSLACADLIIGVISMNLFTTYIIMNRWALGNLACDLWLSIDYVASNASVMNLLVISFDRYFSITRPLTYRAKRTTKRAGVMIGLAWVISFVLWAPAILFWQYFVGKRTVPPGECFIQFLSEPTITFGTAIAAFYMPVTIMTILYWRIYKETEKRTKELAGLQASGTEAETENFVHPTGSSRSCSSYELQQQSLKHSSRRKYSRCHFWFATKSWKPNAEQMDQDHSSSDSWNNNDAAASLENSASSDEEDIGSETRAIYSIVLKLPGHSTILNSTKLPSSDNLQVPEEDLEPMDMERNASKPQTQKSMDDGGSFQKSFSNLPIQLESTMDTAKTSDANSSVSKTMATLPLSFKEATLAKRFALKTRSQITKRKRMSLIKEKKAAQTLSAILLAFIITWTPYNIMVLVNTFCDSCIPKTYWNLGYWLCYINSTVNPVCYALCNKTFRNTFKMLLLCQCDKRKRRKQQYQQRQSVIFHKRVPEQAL
Nature of the test: carbamyl choline (muscarinic) contraction in guinea pig trachea. It counts as biochemical.
Source text: as §4

The next test addresses 5HT1 receptors. Description: Rat Cortical Membrane Binding, 5HT1. The settings on record: rat cortical membranes; read-out: Rat Cortical Membrane Binding IC50, 5HT.
Test [1] has as its target T5, 5HT2 receptors (Rattus norvegicus, UniProt P14842). Nature of the test: biochemical. The text has this:
The procedures employed are those set forth in Cohen, Colbert and Wittenauer (loc. cit.) for other tissues.

A short description of test [2]: blood pressure and heart rate in spontaneously hypertensive rats. In kind it is in vivo. The note with it: SHR, oral, 10 mg/kg.
Test [3] concerns 5HT2 receptors. Description: pressor response to serotonin in pithed SHR after oral treatment. In kind it is in vivo, spontaneously hypertensive rats (SHR). The settings on record: for Curve Shift Relative to trans: pithed SHR. As to the method:
(§5) SHR were anesthesized with halothane, femoral arterial and venous catheters were implanted as before and the trachea was cannulated. Each rat was pithed by passing a steel rod through the right orbit and down the entire length of the spinal column. The steel rod remained in place for the duration of the experiment. Immediately after pithing, the rats were ventilated with room air. An equilibration period of 15 minutes was observed prior to control measurements and administration of drugs or vehicle p.o. Increasing doses of serotonin or the alpha2 agonist clonidine were injected i.v. one or six hours after oral treatment with the […]. The response was recorded and the blood pressure allowed to recover to control levels after serotonin. Cumulative dose-response curves to clonidine were determined. The test drug solution was prepared fresh daily. Tables 5 and 6 give the results of these determinations at a dose level of 0.1 mg/kg.
^a Conscious spontaneously hypertensive rats (SHR) were treated orall
1 hour before anesthesia, pithing and determination of pressordose
response curves to multiple doses of 5HT iv (n= 4-10/group).
^b Dose of 5HT required to increase mean arterial blood pressure by 5
6 hours before anesthesia, pithing and determination of pressordose
response curves to multiple doses of 5HT iv (n = 4-10/group).

The subject of a further test is alpha2 receptors. Nature of the test: alpha2 antagonism (clonidine pressor response) in pithed SHR after oral treatment. It counts as in vivo, spontaneously hypertensive rats (SHR). As to the method: as §5, with “Tables 5 and 6 give the results of these determinations at a dose level of 0.1 mg/kg.” left out
Test [4] has as its target T5, 5HT2 receptors. Nature of the test: antagonism of serotonin contraction in rat external jugular vein (5HT2, apparent dissociation constant). The note with it: antagonist incubated one hour, 37° C., read-out: -log KB (Log Kb ± S.E.), 5HT2 receptors (converted). More on the design: their external jugular veins and thoracic aortas dissected free of connective tissue; from tissue; host or cells: external jugular vein of male Wistar rats. It counts as biochemical, rat (male Wistar). As to the method:
Compounds according to formula I have an extremely high affinity for 5HT2 receptors, with a much lower affinity for alpha receptors. Ratios of relative dissociation constants for interaction with alpha to 5HT2 receptors are of the order of 200,000-300,000 indicating dramatic selectivity for 5HT2 receptors. The apparent dissociation constants (KB) are a measure of affinity for 5HT2 and alpha receptors and are expressed as the negative logarithm and are determined according to the following protocol.
as §1, §2

Test [5] relates to migraine. The note with it: clinical trial, Lance I, Table 1; cited from earlier work.
In the next test the test system is 5HT receptor. The settings on record: literature; cited from earlier work.
The subject of a further test is dopaminergic. The settings on record: literature; cited from earlier work.
Test [6] relates to migraine. The settings on record: Sulman; cited from earlier work.
Test [7] concerns 5HT2 receptors. The note with it: Cohen I; cited from earlier work.
Test [8] concerns vascular alpha adrenergic receptors. The note with it: Cohen I; cited from earlier work.
For test [9], the system named is vascular dopaminergic receptors. The note with it: Cohen I; cited from earlier work.
Test [10] deals with vascular histaminergic receptors. The note with it: Cohen I; cited from earlier work.
For test [11], the system named is receptors other than 5HT2 receptors, particularly peripheral alpha2 receptors. The note with it: cited from earlier work.
A further test has as its system alpha-receptors. The settings on record: literature; cited from earlier work.
The conditions of test [12]: Berde; cited from earlier work.
The test system of a further test is cranial arteries. The settings on record: with noradrenaline, migraine attack, Aellig; cited from earlier work.

T5 sequence (P14842 whole entry): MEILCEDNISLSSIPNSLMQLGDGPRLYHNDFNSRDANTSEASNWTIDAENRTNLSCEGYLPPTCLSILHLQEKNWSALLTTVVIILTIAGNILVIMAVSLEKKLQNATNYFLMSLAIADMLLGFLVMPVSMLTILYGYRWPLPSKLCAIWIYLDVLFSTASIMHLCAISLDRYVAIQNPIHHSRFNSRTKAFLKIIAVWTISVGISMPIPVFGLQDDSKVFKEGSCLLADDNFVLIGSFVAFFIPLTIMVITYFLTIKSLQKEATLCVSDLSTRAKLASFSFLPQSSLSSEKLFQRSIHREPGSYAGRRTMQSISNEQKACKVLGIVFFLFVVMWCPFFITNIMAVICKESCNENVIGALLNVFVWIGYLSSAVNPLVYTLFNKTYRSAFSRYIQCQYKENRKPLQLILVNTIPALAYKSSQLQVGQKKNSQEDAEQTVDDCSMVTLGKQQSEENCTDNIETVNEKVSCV

Regarding `CC(C)n1cc2c3c(cccc31)[C@H]1C[C@@H](C(=O)OC3CCC(O)CC3)CN(C)[C@@H]1C2` (mixture of isomers) [mixture, 4-hydroxycyclohexyl 1-isopropyl-9,10-dihydrolysergate], the Kb was 14500 nM on α1 receptors; 117 nM on α2 receptors; greater than 10000 nM on Histamine; greater than 10000 nM at Muscarinic; 0.0661 nM at 5HT2 receptors [4]. The results for the IC50 on 5HT1 receptors and against 5HT2 receptors [1] were 530 nM and 3 nM, respectively. Besides, the “effect on blood pressure or heart rate” value in [2] is “no effect on blood pressure or heart rate”. Also, the results for the “Curve Shift Relative to trans” value in the test on 5HT2 receptors [3] (one hour after oral 0.1 mg/kg) and in the test with 5HT2 receptors [3] (six hours after oral 0.1 mg/kg) were 3.6 and 5.5, respectively. Moreover, in the test with alpha2 receptors (100 mg/kg dose level po), the “alpha2 antagonist activity in pithed rats” value is recorded as “slight”. For the same compound, the “specificity (5HT2 vs alpha2) in vivo compared with in vitro” value in the test on alpha2 receptors (pithed rats, po) is “greater specificity”.
Take `CN1CCC(=C2c3ccccc3CCc3sccc32)CC1` [BC105]: in the test with migraine [5], the “Improvement rate in migraine” value is reported as 50%.
For `CC(C)n1cc2c3c(cccc31)[C@H]1C[C@@H](C(=O)O[C@H]3CC[C@H](O)CC3)CN(C)[C@@H]1C2` [trans, trans-4-hydroxycyclohexyl 1-isopropyl-9,10-dihydrolysergate], the Kb is 1950 nM on α1 receptors; 66.1 nM at α2 receptors; greater than 10000 nM on Histamine; greater than 10000 nM at Muscarinic; 0.0955 nM on 5HT2 receptors [4]. The IC50 at 5HT1 receptors was found to be 390 nM; against 5HT2 receptors [1], 0.7 nM. For the same compound, the “potency of trans isomer relative to cis isomer” value in the test on 5HT2 receptors [3] (by extrapolation, po) is reported as 3 X.
As to `CC(C)n1cc2c3c(cccc31)[C@H]1C[C@@H](C(=O)O[C@H]3CC[C@@H](O)CC3)CN(C)[C@@H]1C2` (mixture of isomers) [cis, cis-(±)-4-hydroxycyclohexyl 1-isopropyl-9,10-dihydrolysergate], the Kb at α1 receptors is 4470 nM; at α2 receptors it was 155 nM; at 5HT2 receptors [4], 0.112 nM. Besides, the curve shift in the test on 5HT2 receptors [3] (0.3 mg/kg po) was 6.7. For the same compound, in the test with 5HT2 receptors [3] (0.3 mg/kg po), the “dose of 5HT required to increase mean arterial BP by 50 mmHg” value worked out at 1800. For the same compound, the “Curve Shift Relative to trans” value was 11.6 in the test on 5HT2 receptors [3] (one hour after oral 0.1 mg/kg) and 24.3 in the test with 5HT2 receptors [3] (six hours after oral 0.1 mg/kg).
For the compound `C[C@@H](CO)NC(=O)[C@@H]1C=C2c3cccc4[nH]cc(c34)C[C@H]2N(C)C1` [ergonovine], the “5HT receptor activity (agonist/antagonist) in words” value with 5HT receptor is 5HT agonist and selective and fairly potent 5HT antagonist in smooth muscle and highly active 5HT antagonist in the uterus. For the same compound, in the test on dopaminergic, the “dopaminergic activity in words” value is recorded as “weak dopaminergic antagonist”.
Consider `CN1CCC(CN2c3ccccc3Sc3ccccc32)C1` (stereo not shown) [methdilazine], for which the “Improvement rate in migraine” value in the test on migraine [5] was 45%.
Regarding `CCN(CC)C(=O)N[C@H]1C=C2c3cccc4[nH]cc(c34)C[C@H]2N(C)C1` [lysenyl, N-D-6-methylisoergolenyldiethylcarbamide], the “Improvement rate in migraine” value in the test with migraine [5] is recorded as 34%.
Take `CN1CCC(=C2c3ccccc3C=Cc3ccccc32)CC1` [cyproheptadine]: the “Improvement rate in migraine” value in the test on migraine [5] was 43%.
Take `CN1CCC(=C2c3ccccc3C(O)c3ccccc32)CC1` (stereo not shown) [danitracene]: the pharmacological effects result in the test with migraine [6] is “antiserotonin, antihistamine and antidepressive affects”.
With `CC(O)C(C)OC(=O)[C@@H]1C[C@@H]2c3cccc4c3c(cn4C(C)C)C[C@H]2N(C)C1` (stereo partly drawn) [LY53857, 1-isopropyl-6-methyl-8β-(1-methyl-2-hydroxy)propoxycarbonyl-5R-ergoline], the “antagonism of vascular contraction to serotonin” value with 5HT2 receptors [7] was “potent antagonist”. The “affinity, vascular alpha adrenergic receptors” value in test [8] is given as “minimal affinity”. Besides, the “affinity, vascular dopaminergic receptors” value in test [9] was “minimal affinity”. Further, the “affinity, vascular histaminergic receptors” value in test [10] is recorded as “minimal affinity”. In addition, the “effect on receptors other than 5HT2” value in test [11] was “lack of effect”.
Turning to `CN1C[C@H](C(=O)N[C@]2(C)O[C@@]3(O)[C@@H]4CCCN4C(=O)[C@H](Cc4ccccc4)N3C2=O)C=C2c3cccc4[nH]cc(c34)C[C@H]21` [ergotamine], the “5HT receptor activity (agonist/antagonist) in words” value in the test on 5HT receptor is reported as 5HT agonists at low concentrations but antagonistic at higher concentrations. Moreover, in the test on alpha-receptors, the “alpha receptor activity in words” value is “both a partial alpha-agonist and an alpha-antagonist”. In [12], the “pressor and emetic activity” value was “most active compound only in pressor and emetic activity”. In the test with cranial arteries, the “constriction of cranial arteries” value is reported as “act together to constrict cranial arteries”.

Usually IC50 stands for the concentration that inhibits the measured activity by half.
